These results are taken from ChEMBL document CHEMBL3217717, “Synthesis and antiproliferative activity of novel erythromycin derivatives” (Medchemcomm, 2010).

Common to all, as to assay type: functional, cell-based
In experiment [1] the test system is KB. In words: Cytotoxicity against human KB cells assessed as growth inhibition after 48 hrs by MTT assay.
A short description of experiment [2]: Cytotoxicity against human SGC7901 cells assessed as growth inhibition after 48 hrs by MTT assay. The following applies: SGC-7901, 48 h. On the technique in general: Formazan colour is commonly taken as a measure of viable cells.
A short description of experiment [3]: Cytotoxicity against human HT1080 cells assessed as growth inhibition after 48 hrs by MTT assay. The conditions noted are these: HT-1080, 48 h.

Usually IC50 stands for the concentration that inhibits the measured activity by half. Take `CC[C@H]1OC(=O)[C@H](C)[C@@H](O)[C@H](C)[C@@H](O[C@@H]2O[C@H](C)C[C@H](N(C)CCN(C)[C@H]3C[C@@H](C)O[C@@H](O[C@@H]4[C@@H](C)[C@H](O)[C@@H](C)C(=O)O[C@H](CC)[C@@](C)(O)[C@H](O)[C@@H](C)[C@@H](O)[C@H](C)C[C@@]4(C)O)[C@@H]3O)[C@H]2O)[C@](C)(O)C[C@@H](C)[C@H](O)[C@H](C)[C@@H](O)[C@]1(C)O`: the IC50 in experiment [1], in experiment [2] and in experiment [3] was above 100 µM in each case.
On to `CC[C@H]1OC(=O)[C@H](C)[C@@H](O[C@H]2C[C@@](C)(OC)[C@@H](O)[C@H](C)O2)[C@H](C)[C@@H](O[C@@H]2O[C@H](C)C[C@H](N(C)CC(=O)N(C)[C@H]3C[C@@H](C)O[C@@H](O[C@@H]4[C@@H](C)[C@H](O[C@H]5C[C@@](C)(OC)[C@@H](O)[C@H](C)O5)[C@@H](C)C(=O)O[C@H](CC)[C@@](C)(O)[C@H](O)[C@@H](C)C(=O)[C@H](C)C[C@@]4(C)OC)[C@@H]3O)[C@H]2O)[C@](C)(OC)C[C@@H](C)C(=O)[C@H](C)[C@@H](O)[C@]1(C)O`, for which the IC50 in experiment [1] is above 100 µM; in experiment [2], 16.2 µM; in experiment [3] it was 30.9 µM.
With `CC[C@H]1OC(=O)[C@H](C)[C@@H](O[C@H]2C[C@@](C)(OC)[C@@H](O)[C@H](C)O2)[C@H](C)[C@@H](O[C@@H]2O[C@H](C)C[C@H](N(C)CCN(C)[C@H]3C[C@@H](C)O[C@@H](O[C@@H]4[C@@H](C)[C@H](O[C@H]5C[C@@](C)(OC)[C@@H](O)[C@H](C)O5)[C@@H](C)C(=O)O[C@H](CC)[C@@](C)(O)[C@H](O)[C@@H](C)/C(=N\OCOCCOC)[C@H](C)C[C@@]4(C)O)[C@@H]3O)[C@H]2O)[C@](C)(O)C[C@@H](C)/C(=N/O)[C@H](C)[C@@H](O)[C@]1(C)O`, the half-maximal inhibitory concentration (IC50) is 18.6 µM in experiment [1], 7.2 µM in experiment [2] and 16.2 µM in experiment [3].
`CC[C@H]1OC(=O)[C@H](C)[C@@H](O[C@H]2C[C@@](C)(OC)[C@@H](O)[C@H](C)O2)[C@H](C)[C@@H](O[C@@H]2O[C@H](C)C[C@H](N(C)CCN(C)[C@H]3C[C@@H](C)O[C@@H](O[C@@H]4[C@@H](C)[C@H](O[C@H]5C[C@@](C)(OC)[C@@H](O)[C@H](C)O5)[C@@H](C)C(=O)O[C@H](CC)[C@@](C)(O)[C@H](O)[C@@H](C)C(=O)[C@H](C)C[C@@]4(C)OC)[C@@H]3O)[C@H]2O)[C@](C)(O)C[C@@H](C)[C@H](N)[C@H](C)[C@@H](O)[C@]1(C)O`: the IC50 in experiment [1] came to 26.4 µM; in experiment [2], 57.8 µM; in experiment [3], 17.8 µM.
As to `C=CCO/N=C1/[C@H](C)C[C@@](C)(O)[C@H](O[C@@H]2O[C@H](C)C[C@H](N(C)CCN(C)[C@H]3C[C@@H](C)O[C@@H](O[C@@H]4[C@@H](C)[C@H](O[C@H]5C[C@@](C)(OC)[C@@H](O)[C@H](C)O5)[C@@H](C)C(=O)O[C@H](CC)[C@@](C)(O)[C@H](O)[C@@H](C)/C(=N\OCC=C)[C@H](C)C[C@@]4(C)O)[C@@H]3O)[C@H]2O)[C@@H](C)[C@H](O[C@H]2C[C@@](C)(OC)[C@@H](O)[C@H](C)O2)[C@@H](C)C(=O)O[C@H](CC)[C@@](C)(O)[C@H](O)[C@H]1C`, the results for the IC50 in experiment [1], in experiment [2] and in experiment [3] were 17.5 µM, above 100 µM and 27.7 µM, respectively.
Taken in the same sequence, the figures for `CC[C@H]1OC(=O)[C@H](C)[C@@H](O[C@H]2C[C@@](C)(OC)[C@@H](O)[C@H](C)O2)[C@H](C)[C@@H](O[C@@H]2O[C@H](C)C[C@H](N(C)CC(=O)N(C)[C@H]3C[C@@H](C)O[C@@H](O[C@@H]4[C@@H](C)[C@H](O[C@H]5C[C@@](C)(OC)[C@@H](O)[C@H](C)O5)[C@@H](C)C(=O)O[C@H](CC)[C@@](C)(O)[C@H](O)[C@@H](C)/C(=N/OCOCCOC)[C@H](C)C[C@@]4(C)O)[C@@H]3O)[C@H]2O)[C@](C)(O)C[C@@H](C)/C(=N/OCOCCOC)[C@H](C)[C@@H](O)[C@]1(C)O` were 28.7 µM, 13.3 µM and 33.4 µM.
In the case of `CC[C@H]1OC(=O)[C@H](C)[C@@H](O)[C@H](C)[C@@H](O[C@@H]2O[C@H](C)C[C@H](N(C)CCN(C)[C@H]3C[C@@H](C)O[C@@H](O[C@@H]4[C@@H](C)[C@H](O[C@H]5C[C@@](C)(OC)[C@@H](O)[C@H](C)O5)[C@@H](C)C(=O)O[C@H](CC)[C@@](C)(O)[C@H](O)[C@@H](C)C(=O)[C@H](C)C[C@@]4(C)OC)[C@@H]3O)[C@H]2O)[C@](C)(OC)C[C@@H](C)C(=O)[C@H](C)[C@@H](O)[C@]1(C)O`, the figures for the IC50 in experiment [1], in experiment [2] and in experiment [3] were 97 µM, above 100 µM and above 100 µM, respectively.
Turning to `CC[C@H]1OC(=O)[C@H](C)[C@@H](O[C@H]2C[C@@](C)(OC)[C@@H](O)[C@H](C)O2)[C@H](C)[C@@H](O[C@@H]2O[C@H](C)C[C@H](N(C)CCN(C)[C@H]3C[C@@H](C)O[C@@H](O[C@@H]4[C@@H](C)[C@H](O[C@H]5C[C@@](C)(OC)[C@@H](O)[C@H](C)O5)[C@@H](C)C(=O)O[C@H](CC)[C@@](C)(O)[C@H](O)[C@@H](C)C(=O)[C@H](C)C[C@@]4(C)OC)[C@@H]3O)[C@H]2O)[C@](C)(OC)C[C@@H](C)C(=O)[C@H](C)[C@@H](O)[C@]1(C)O`, the 50% inhibitory concentration (IC50) worked out at 17.7 µM in experiment [1], 20 µM in experiment [2] and 8.1 µM in experiment [3].
Taken in the same sequence, the figures for `CC[C@H]1OC(=O)[C@H](C)[C@@H](O[C@H]2C[C@@](C)(OC)[C@@H](O)[C@H](C)O2)[C@H](C)[C@@H](O[C@@H]2O[C@H](C)C[C@H](N(C)CCN(C)[C@H]3C[C@@H](C)O[C@@H](O[C@@H]4[C@@H](C)[C@H](O[C@H]5C[C@@](C)(OC)[C@@H](O)[C@H](C)O5)[C@@H](C)C(=O)O[C@H](CC)[C@@](C)(O)[C@H](O)[C@@H](C)/C(=N\OCOCCOC)[C@H](C)C[C@@]4(C)O)[C@@H]3O)[C@H]2O)[C@](C)(O)C[C@@H](C)/C(=N/OCOCCOC)[C@H](C)[C@@H](O)[C@]1(C)O` were 5.5 µM, above 100 µM and 3.5 µM.
On the same counts, the results for `CC[C@H]1OC(=O)[C@H](C)[C@@H](O[C@H]2C[C@@](C)(OC)[C@@H](O)[C@H](C)O2)[C@H](C)[C@@H](O[C@@H]2O[C@H](C)C[C@H](N(C)CC(=O)N(C)[C@H]3C[C@@H](C)O[C@@H](O[C@@H]4[C@@H](C)[C@H](O[C@H]5C[C@@](C)(OC)[C@@H](O)[C@H](C)O5)[C@@H](C)C(=O)O[C@H](CC)[C@@](C)(O)[C@H](O)[C@@H](C)C(=O)[C@H](C)C[C@@]4(C)O)[C@@H]3O)[C@H]2O)[C@](C)(OC)C[C@@H](C)C(=O)[C@H](C)[C@@H](O)[C@]1(C)O` are above 100 µM, above 100 µM and above 100 µM.
On the same counts, the results for `CC[C@H]1OC(=O)[C@H](C)[C@@H](O[C@H]2C[C@@](C)(OC)[C@@H](O)[C@H](C)O2)[C@H](C)[C@@H](O[C@@H]2O[C@H](C)C[C@H](N(C)CC(=O)N(C)[C@H]3C[C@@H](C)O[C@@H](O[C@@H]4[C@@H](C)[C@H](O[C@H]5C[C@@](C)(OC)[C@@H](O)[C@H](C)O5)[C@@H](C)C(=O)O[C@H](CC)[C@@](C)(O)[C@H](O)[C@@H](C)C(=O)[C@H](C)C[C@@]4(C)O)[C@@H]3O)[C@H]2O)[C@](C)(O)C[C@@H](C)C(=O)[C@H](C)[C@@H](O)[C@]1(C)O` are above 100 µM, 26.5 µM and above 100 µM.
With `CC[C@H]1OC(=O)[C@H](C)[C@@H](O[C@H]2C[C@@](C)(OC)[C@@H](O)[C@H](C)O2)[C@H](C)[C@@H](O[C@@H]2O[C@H](C)C[C@H](N(C)CCN(C)[C@H]3C[C@@H](C)O[C@@H](O[C@@H]4[C@@H](C)[C@H](O[C@H]5C[C@@](C)(OC)[C@@H](O)[C@H](C)O5)[C@@H](C)C(=O)O[C@H](CC)[C@@](C)(O)[C@H](O)[C@@H](C)/C(=N\OCc5ccccc5)[C@H](C)C[C@@]4(C)O)[C@@H]3O)[C@H]2O)[C@](C)(O)C[C@@H](C)/C(=N/OCc2ccccc2)[C@H](C)[C@@H](O)[C@]1(C)O`, the 50% inhibitory concentration (IC50) in experiment [1], in experiment [2] and in experiment [3] was above 100 µM in each case.
For the molecule `CC[C@H]1OC(=O)[C@H](C)[C@@H](O[C@H]2C[C@@](C)(OC)[C@@H](O)[C@H](C)O2)[C@H](C)[C@@H](O[C@@H]2O[C@H](C)C[C@H](N(C)CCN(C)[C@H]3C[C@@H](C)O[C@@H](O[C@@H]4[C@@H](C)[C@H](O[C@H]5C[C@@](C)(OC)[C@@H](O)[C@H](C)O5)[C@@H](C)C(=O)O[C@H](CC)[C@@](C)(O)[C@H](O)[C@@H](C)/C(=N\OCOCCOC)[C@H](C)C[C@@]4(C)O)[C@@H]3O)[C@H]2O)[C@](C)(OC)C[C@@H](C)/C(=N/O)[C@H](C)[C@@H](O)[C@]1(C)O`, the 50% inhibitory concentration (IC50) in experiment [1] was 14.7 µM; in experiment [2], 22.1 µM; in experiment [3] it was 6.3 µM.
For `CC[C@H]1OC(=O)[C@H](C)[C@@H](O[C@H]2C[C@@](C)(OC)[C@@H](O)[C@H](C)O2)[C@H](C)[C@@H](O[C@@H]2O[C@H](C)C[C@H](N(C)CCN(C)[C@H]3C[C@@H](C)O[C@@H](O[C@@H]4[C@@H](C)[C@H](O[C@H]5C[C@@](C)(OC)[C@@H](O)[C@H](C)O5)[C@@H](C)C(=O)O[C@H](CC)[C@@](C)(O)[C@H](O)[C@@H](C)/C(=N\OCc5ccccc5)[C@H](C)C[C@@]4(C)O)[C@@H]3O)[C@H]2O)[C@](C)(O)C[C@@H](C)/C(=N/OCOCCOC)[C@H](C)[C@@H](O)[C@]1(C)O`, the IC50 in experiment [1], in experiment [2] and in experiment [3] was above 100 µM each time.
For the molecule `CC[C@H]1OC(=O)[C@H](C)[C@@H](O[C@H]2C[C@@](C)(OC)[C@@H](O)[C@H](C)O2)[C@H](C)[C@@H](O[C@@H]2O[C@H](C)C[C@H](N(C)C(=O)CN(C)[C@H]3C[C@@H](C)O[C@@H](O[C@@H]4[C@@H](C)[C@H](O[C@H]5C[C@@](C)(OC)[C@@H](O)[C@H](C)O5)[C@@H](C)C(=O)O[C@H](CC)[C@@](C)(O)[C@H](O)[C@@H](C)/C(=N\OCOCCOC)[C@H](C)C[C@@]4(C)O)[C@@H]3O)[C@H]2O)[C@](C)(OC)C[C@@H](C)C(=O)[C@H](C)[C@@H](O)[C@]1(C)O`, the IC50 in experiment [1], in experiment [2] and in experiment [3] was above 100 µM throughout.
